According to paper PMC11678782, “The Antioxidant and Anti-Inflammatory Activities of the Methanolic Extract, Fractions, and Isolated Compounds from Eriosema montanum Baker f. (Fabaceae)” (Molecules, 2024):
Entries after “also recorded” stand apart in the source; their conditions may differ.

How the values were obtained:
[1] = tested on: LPS-induced NO production; design: method as in PMID 20183278, PMID 27087823, PMID 32253713; settings: cited from earlier work
[2] = tested on: LPS-stimulated RAW 264.7 cells; assay: ROS production in LPS-stimulated RAW 264.7 cells (DCFH-DA); assay type: cell-based, murine; settings: 25, 50, 100 µg/mL, 2 h pre-treatment, 200 ng/mL LPS 24 h
Procedure: For ROS production inhibition, on a black/clear bottom 96-well plate, RAW 264.7 cells were seeded at a density of 10,000 cells per well. The cells were then pre-treated with non-toxic quantities of EMME and genistin (5) at 25, 50, and 100 µg/mL for two hours and then exposed to 200 ng/mL of LPS for twenty-four hours under standard culture conditions. Thereafter, the cells were washed twice with PBS, followed by the addition of 100 µL of fresh FBS-free medium containing 10 µM of the fluorescent probe 2′,7′-dichlorodihydrofluorescein diacetate (DCFH-DA) (Sigma-Aldrich, Darmstadt, Germany). After 30 min of additional incubation under usual culture conditions, PBS was added to the plate in place of the fluorescent probe. The fluorescence of the cells was measured using a SpectraMax iD3 multi-mode microplate reader (Molecular Devices, San Jose, CA, USA) at 485 nm (excitation) and 535 nm (emission). The percentage of cells treated with DMSO 0.5% without LPS, known as the negative control, was used to express the intracellular ROS levels. Using an excitation/emission filter (480/535 nm) on a 40× objective, images were taken with a camera (Flexacam C1, Leica Microsystems, Wetzlar, Germany) attached to a fluorescence microscope (Leica Microsytems GmbH, Wetzlar, Germany).

SMILES: O=c1c(-c2ccc(O)cc2)coc2cc(O[C@@H]3O[C@H](CO)[C@@H](O)[C@H](O)[C@H]3O)cc(O)c12 [Compound 5, genistin]
- Effect on LPS-induced NO production [1]: decreases LPS-induced NO production
- Inhibition of LPS-induced ROS production [2]: markedly and dose-dependently reduced
- Inhibition of LPS-induced ROS production ([2]; listed as Genistin (5)): able to inhibit
- Inhibition of LPS-induced ROS production ([2]; listed as genistin (5)): moderate activity; also recorded: moderately effective
